The source made the active and inactive calls. The calls are words filed in the database; no cut-off is given here.
Tested on: not listed separately
Assay: Metabolic stability in mouse liver microsomes assessed as intrinsic clearance at 0.5 uM incubated for 30 mins by LC-MS/MS analysis
Assay type: ADME, Microsome
Conditions: read-out: CLH

Row | Compound | microsomal CLint at 0.5 µM
1 | O[C@H](c1cc(C(F)(F)F)nc2c(C(F)(F)F)cccc12)[C@@H]1CCCCN1 [(R,S)-MEFLOQUINE] | < 20 µL/min/mg
2 | O[C@@H](c1cc(C(F)(F)F)nc2c(C(F)(F)F)cccc12)[C@H]1CCCCN1 [(S,R)-MEFLOQUINE] | < 20 µL/min/mg

Tested on: Plasmodium berghei
Assay: Antimalarial activity against Plasmodium berghei ANKA infected in BALB/c mouse assessed as increase in animal survival rate at 9 mg/kg, ip administered daily for 5 days and measured for 30 days
Assay type: functional, organism-based
Conditions: time 30.0 day

Row | Compound | Activity
3 | O[C@@H](c1cc(C(F)(F)F)nc2c(C(F)(F)F)cccc12)[C@H]1CCCCN1 (relative stereo) | Active

Tested on: not listed separately
Assay: Apparent permeability across apical to basolateral side in human Caco-2/TC7 cells at 20 uM incubated for 2 hrs by LC-MS/MS analysis
Assay type: ADME, cell-based, Caco2/TC7
Conditions: not given

Row | Compound | Papp A→B at 2 h, 20 µM
4 | CCCCCNC[C@H](O)c1cc(C(F)(F)F)nc2c(C(F)(F)F)cccc12 | 3.7 ×10⁻⁶ cm/s
5 | CCCCCCCNC[C@@H](O)c1cc(C(F)(F)F)nc2c(C(F)(F)F)cccc12 | 5.3 ×10⁻⁶ cm/s
6 | O[C@H](c1cc(C(F)(F)F)nc2c(C(F)(F)F)cccc12)[C@@H]1CCCCN1 [(R,S)-MEFLOQUINE] | 4.5 ×10⁻⁶ cm/s
7 | CCCCCCCNC[C@H](O)c1cc(C(F)(F)F)nc2c(C(F)(F)F)cccc12 | 0.5 ×10⁻⁶ cm/s
8 | CCCCCNC[C@@H](O)c1cc(C(F)(F)F)nc2c(C(F)(F)F)cccc12 | 11.4 ×10⁻⁶ cm/s
9 | O[C@@H](c1cc(C(F)(F)F)nc2c(C(F)(F)F)cccc12)[C@H]1CCCCN1 [(S,R)-MEFLOQUINE] | 4.5 ×10⁻⁶ cm/s

Tested on: not listed separately
Assay: Cytotoxicity against human THP-1 cells assessed as reduction in cell viability incubated for 72 hrs by MTT assay
Assay type: toxicity, cell-based
Conditions: not given

Row | Compound | IC50 at 72 h
10 | OC[C@H](Cc1ccccc1)NC[C@H](O)c1cc(C(F)(F)F)nc2c(C(F)(F)F)cccc12 (single isomer, unassigned) | 9.2 µM

Tested on: not listed separately
Assay: Selectivity index, ratio of IC50 for cytotoxicity against human HepG2 cells to IC50 for antiplasmodial activity against Plasmodium falciparum 3D7 infected in human erythrocytes by HRP2-ELISA
Assay type: toxicity, cell-based
Conditions: read-out: Ratio IC50

Row | Compound | selectivity ratio
11 | OC[C@H](Cc1ccccc1)NC[C@H](O)c1cc(C(F)(F)F)nc2c(C(F)(F)F)cccc12 (single isomer, unassigned) | 303

Tested on: not listed separately
Assay: Metabolic stability in human hepatocytes assessed as intrinsic clearance incubated up to 24 hrs measured per 10^6 cells by LC-MS/MS analysis
Assay type: ADME, cell-based, Hepatocyte
Conditions: not given

Row | Compound | CLH
12 | O[C@H](c1cc(C(F)(F)F)nc2c(C(F)(F)F)cccc12)[C@@H]1CCCCN1 [(R,S)-MEFLOQUINE] | 0.004 mL/h
13 | O[C@@H](c1cc(C(F)(F)F)nc2c(C(F)(F)F)cccc12)[C@H]1CCCCN1 [(S,R)-MEFLOQUINE] | 0.002 mL/h

Tested on: not listed separately
Assay: Cytotoxicity against Chinese hamster CHO cells assessed as reduction in cell viability incubated for 24 hrs by MTT assay
Assay type: toxicity, cell-based, Cricetulus griseus
Conditions: not given

Row | Compound | IC50 at 24 h
14 | OC[C@H](Cc1ccccc1)NC[C@H](O)c1cc(C(F)(F)F)nc2c(C(F)(F)F)cccc12 (single isomer, unassigned) | 35.2 µM

Tested on: not listed separately
Assay: Metabolic stability in rat liver microsomes assessed as intrinsic clearance at 0.5 uM incubated for 30 mins by LC-MS/MS analysis
Assay type: ADME, Microsome
Conditions: read-out: CLH

Row | Compound | microsomal CLint at 0.5 µM
15 | O[C@H](c1cc(C(F)(F)F)nc2c(C(F)(F)F)cccc12)[C@@H]1CCCCN1 [(R,S)-MEFLOQUINE] | < 20 µL/min/mg
16 | O[C@@H](c1cc(C(F)(F)F)nc2c(C(F)(F)F)cccc12)[C@H]1CCCCN1 [(S,R)-MEFLOQUINE] | < 20 µL/min/mg

Tested on: Plasmodium falciparum
Assay: Antiplasmodial activity against CQ-susceptible Plasmodium falciparum 3D7 assessed as inhibition of parasite growth measured after 48 hrs by SYBR Green 1 dye based fluorescence assay
Assay type: functional, organism-based
Conditions: 3D7, 48 h

Row | Compound | IC50
17 | OC[C@H](Cc1ccccc1)NC[C@H](O)c1cc(C(F)(F)F)nc2c(C(F)(F)F)cccc12 (single isomer, unassigned) | 30.9 nM

Tested on: not listed separately
Assay: Selectivity index, ratio of IC50 for cytotoxicity against human THP-1 cells to IC50 for antiplasmodial activity against Plasmodium falciparum 3D7 infected in human erythrocytes by HRP2-ELISA
Assay type: toxicity, cell-based
Conditions: read-out: Ratio IC50

Row | Compound | selectivity ratio
18 | OC[C@H](Cc1ccccc1)NC[C@H](O)c1cc(C(F)(F)F)nc2c(C(F)(F)F)cccc12 (single isomer, unassigned) | 123

Tested on: not listed separately
Assay: Selectivity index, ratio of IC50 for human HFF cells to IC50 for antiplasmodial activity against Plasmodium falciparum 3D7 infected in human erythrocytes by HRP2-ELISA
Assay type: toxicity, cell-based
Conditions: read-out: Ratio IC50

Row | Compound | selectivity ratio
19 | OC[C@H](Cc1ccccc1)NC[C@H](O)c1cc(C(F)(F)F)nc2c(C(F)(F)F)cccc12 (single isomer, unassigned) | 718

Tested on: not listed separately
Assay: Cytotoxicity against human HFF cells assessed as reduction in cell viability incubated for 72 hrs by MTT assay
Assay type: toxicity, cell-based
Conditions: not given

Row | Compound | IC50 at 72 h
20 | OC[C@H](Cc1ccccc1)NC[C@H](O)c1cc(C(F)(F)F)nc2c(C(F)(F)F)cccc12 (single isomer, unassigned) | 53.7 µM

Tested on: Plasmodium falciparum
Assay: Antiplasmodial activity against CQ-resistant Plasmodium falciparum W2 assessed as inhibition of parasite growth measured after 48 hrs by SYBR Green 1 dye based fluorescence assay
Assay type: functional, organism-based
Conditions: W2, 48 h

Row | Compound | IC50
21 | OC[C@H](Cc1ccccc1)NC[C@H](O)c1cc(C(F)(F)F)nc2c(C(F)(F)F)cccc12 (single isomer, unassigned) | 3.3 nM
22 | O[C@@H](c1cc(C(F)(F)F)nc2c(C(F)(F)F)cccc12)[C@H]1CCCCN1 [(S,R)-MEFLOQUINE] | 31.8 nM

Tested on: Plasmodium falciparum
Assay: Antiplasmodial activity CQ-resistant Plasmodium falciparum W2 infected in human erythrocytes assessed as inhibition of parasite growth measured after 72 hrs by HRP2-ELISA
Assay type: functional, organism-based
Conditions: W2, Erythrocyte

Row | Compound | IC50
23 | OC[C@H](Cc1ccccc1)NC[C@H](O)c1cc(C(F)(F)F)nc2c(C(F)(F)F)cccc12 (single isomer, unassigned) | 61.9 nM
24 | O[C@@H](c1cc(C(F)(F)F)nc2c(C(F)(F)F)cccc12)[C@H]1CCCCN1 [(S,R)-MEFLOQUINE] | 28.3 nM

Tested on: not listed separately
Assay: Cytotoxicity against human HepG2 cells assessed as reduction in cell viability incubated for 72 hrs by MTT assay
Assay type: toxicity, cell-based
Conditions: not given

Row | Compound | IC50 at 72 h
25 | OC[C@H](Cc1ccccc1)NC[C@H](O)c1cc(C(F)(F)F)nc2c(C(F)(F)F)cccc12 (single isomer, unassigned) | 22.7 µM

Tested on: not listed separately
Assay: Selectivity index, ratio of IC50 for cytotoxicity against chinese hamster CHO cells to IC50 for antiplasmodial activity against Plasmodium falciparum 3D7 infected in human erythrocytes by HRP2-ELISA
Assay type: toxicity, cell-based
Conditions: read-out: Ratio IC50

Row | Compound | selectivity ratio
26 | OC[C@H](Cc1ccccc1)NC[C@H](O)c1cc(C(F)(F)F)nc2c(C(F)(F)F)cccc12 (single isomer, unassigned) | 470

Tested on: not listed separately
Assay: Metabolic stability in human liver microsomes assessed as intrinsic clearance at 0.5 uM incubated for 30 mins by LC-MS/MS analysis
Assay type: ADME, Microsome
Conditions: read-out: CLH

Row | Compound | microsomal CLint at 0.5 µM
27 | O[C@H](c1cc(C(F)(F)F)nc2c(C(F)(F)F)cccc12)[C@@H]1CCCCN1 [(R,S)-MEFLOQUINE] | < 20 µL/min/mg
28 | O[C@@H](c1cc(C(F)(F)F)nc2c(C(F)(F)F)cccc12)[C@H]1CCCCN1 [(S,R)-MEFLOQUINE] | < 20 µL/min/mg

Tested on: Plasmodium falciparum
Assay: Selectivity index, ratio of IC50 for antiplasmodial activity against CQ-susceptible Plasmodium falciparum 3D7 to IC50 for antiplasmodial activity CQ-resistant Plasmodium falciparum W2 by HRP2-ELISA
Assay type: functional
Conditions: not given

Row | Compound | Ratio IC50
29 | OC[C@H](Cc1ccccc1)NC[C@H](O)c1cc(C(F)(F)F)nc2c(C(F)(F)F)cccc12 (single isomer, unassigned) | 1.2

Tested on: not listed separately
Assay: Apparent permeability across apical to basolateral side in human Caco-2/TC7 cells assessed as drug recovery at 20 uM incubated for 2 hrs by LC-MS/MS analysis
Assay type: ADME, cell-based, Caco2/TC7
Conditions: read-out: Drug recovery

Row | Compound | recovery at 2 h, 20 µM
30 | CCCCCNC[C@H](O)c1cc(C(F)(F)F)nc2c(C(F)(F)F)cccc12 | 86%
31 | CCCCCCCNC[C@@H](O)c1cc(C(F)(F)F)nc2c(C(F)(F)F)cccc12 | 65%
32 | O[C@H](c1cc(C(F)(F)F)nc2c(C(F)(F)F)cccc12)[C@@H]1CCCCN1 [(R,S)-MEFLOQUINE] | 85%
33 | CCCCCCCNC[C@H](O)c1cc(C(F)(F)F)nc2c(C(F)(F)F)cccc12 | 90%
34 | CCCCCNC[C@@H](O)c1cc(C(F)(F)F)nc2c(C(F)(F)F)cccc12 | 99%
35 | O[C@@H](c1cc(C(F)(F)F)nc2c(C(F)(F)F)cccc12)[C@H]1CCCCN1 [(S,R)-MEFLOQUINE] | 91%

Tested on: Plasmodium falciparum
Assay: Selectivity index, ratio of IC50 for antiplasmodial activity against CQ-susceptible Plasmodium falciparum 3D7 to IC50 for antiplasmodial activity against CQ-resistant Plasmodium falciparum W2 by SYBR Green 1 dye based fluorescence assay
Assay type: functional
Conditions: not given

Row | Compound | Ratio IC50
36 | OC[C@H](Cc1ccccc1)NC[C@H](O)c1cc(C(F)(F)F)nc2c(C(F)(F)F)cccc12 (single isomer, unassigned) | 9.4

Target: Voltage-gated inwardly rectifying potassium channel KCNH2 (Homo sapiens, UniProt Q12809)
Assay: Inhibition of hERG channel expressed in CHO cells at holding potential of -80 mV by whole cell patch clamp method
Assay type: toxicity, cell-based
Conditions: not given

Chain of Voltage-gated inwardly rectifying potassium channel KCNH2 (Q12809 whole entry): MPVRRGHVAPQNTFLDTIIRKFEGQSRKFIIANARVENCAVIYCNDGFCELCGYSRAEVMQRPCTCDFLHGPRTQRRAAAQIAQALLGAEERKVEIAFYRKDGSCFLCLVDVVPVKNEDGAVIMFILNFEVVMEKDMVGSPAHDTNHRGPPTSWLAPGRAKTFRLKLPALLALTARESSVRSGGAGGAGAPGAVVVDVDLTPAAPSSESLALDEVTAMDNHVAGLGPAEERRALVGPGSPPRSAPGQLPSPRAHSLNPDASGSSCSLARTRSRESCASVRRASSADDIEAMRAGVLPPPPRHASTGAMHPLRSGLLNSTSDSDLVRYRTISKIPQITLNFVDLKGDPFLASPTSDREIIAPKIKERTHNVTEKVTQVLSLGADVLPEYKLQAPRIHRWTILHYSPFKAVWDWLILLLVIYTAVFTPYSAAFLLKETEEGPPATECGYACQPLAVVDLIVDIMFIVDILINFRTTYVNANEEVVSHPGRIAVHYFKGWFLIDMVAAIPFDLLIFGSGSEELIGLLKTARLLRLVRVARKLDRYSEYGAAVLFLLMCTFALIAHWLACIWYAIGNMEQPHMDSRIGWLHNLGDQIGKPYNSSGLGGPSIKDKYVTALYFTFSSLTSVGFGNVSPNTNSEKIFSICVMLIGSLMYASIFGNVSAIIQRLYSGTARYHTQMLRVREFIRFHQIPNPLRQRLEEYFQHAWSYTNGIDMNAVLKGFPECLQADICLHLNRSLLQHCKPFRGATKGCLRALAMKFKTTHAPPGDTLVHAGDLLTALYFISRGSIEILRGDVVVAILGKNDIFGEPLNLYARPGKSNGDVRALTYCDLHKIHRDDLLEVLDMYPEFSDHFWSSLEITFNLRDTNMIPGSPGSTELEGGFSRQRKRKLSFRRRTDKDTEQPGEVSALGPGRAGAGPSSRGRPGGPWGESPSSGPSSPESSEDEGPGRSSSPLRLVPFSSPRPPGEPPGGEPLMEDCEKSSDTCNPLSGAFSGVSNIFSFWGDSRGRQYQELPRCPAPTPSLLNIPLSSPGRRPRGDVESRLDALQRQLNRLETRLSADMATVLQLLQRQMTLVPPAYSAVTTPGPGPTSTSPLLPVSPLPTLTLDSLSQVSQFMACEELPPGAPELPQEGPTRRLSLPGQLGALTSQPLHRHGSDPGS

Row | Compound | IC50
37 | CCCCCNC[C@H](O)c1cc(C(F)(F)F)nc2c(C(F)(F)F)cccc12 | 5.6 µM
38 | CCCCCCCNC[C@@H](O)c1cc(C(F)(F)F)nc2c(C(F)(F)F)cccc12 | 7 µM
39 | CCCCCCCNC[C@H](O)c1cc(C(F)(F)F)nc2c(C(F)(F)F)cccc12 | > 30 µM
40 | CCCCCNC[C@@H](O)c1cc(C(F)(F)F)nc2c(C(F)(F)F)cccc12 | 8.8 µM

Tested on: Plasmodium falciparum
Assay: Antiplasmodial activity against CQ-susceptible Plasmodium falciparum 3D7 infected in human erythrocytes assessed as inhibition of parasite growth measured after 72 hrs by HRP2-ELISA
Assay type: functional, organism-based
Conditions: 3D7, Erythrocyte

Row | Compound | IC50
41 | OC[C@H](Cc1ccccc1)NC[C@H](O)c1cc(C(F)(F)F)nc2c(C(F)(F)F)cccc12 (single isomer, unassigned) | 74.8 nM
42 | O[C@@H](c1cc(C(F)(F)F)nc2c(C(F)(F)F)cccc12)[C@H]1CCCCN1 [(S,R)-MEFLOQUINE] | 54.1 nM

Source: ChEMBL document CHEMBL5154649, “Design, synthesis, and characterization of novel aminoalcohol quinolines with strong in vitro antimalarial activity” (Eur J Med Chem, 2022)
